Reference: ChEMBL document CHEMBL3997804, “Evaluation of a series of 2-napthamide derivatives as inhibitors of the drug efflux pump AcrB for the reversal of antimicrobial resistance” (Bioorg Med Chem Lett, 2017)
Calls of active or inactive are those of the source. The rule behind the calls is not given here. Peptide text beside a SMILES is read from it. * marks the point of attachment. βNA = c1ccc2cc(N*)ccc2c1

Legend:
[1] = test system: Escherichia coli BW25113; experiment: Inhibition of AcrB in wild-type drug resistant Escherichia coli BW25113 assessed as potentiation of tetraphenyl phosphonium chloride-induced antibacterial activity after 18 hrs by checkerboard method
[2] = test system: Escherichia coli; experiment: Growth inhibition of wild-type drug-resistant Escherichia coli BW25113 after 18 hrs by resazurin dye based broth microdilution method
[3] = test system: Escherichia coli BW25113; experiment: Inhibition of AcrB in wild-type drug resistant Escherichia coli BW25113 assessed as potentiation of chloramphenicol-induced antibacterial activity after 18 hrs by checkerboard method
[4] = test system: Escherichia coli BW25113; experiment: Inhibition of AcrB in wild-type drug resistant Escherichia coli BW25113 assessed as potentiation of erythromycin-induced antibacterial activity after 18 hrs by checkerboard method
[5] = test system: Escherichia coli; experiment: Effect on rifampicin-induced antibacterial activity against wild-type drug resistant Escherichia coli BW25113 after 18 hrs by checkerboard method; type: functional
[6] = test system: Escherichia coli BW25113; experiment: Inhibition of AcrB in drug resistant Escherichia coli BW25113 assessed as reduction in nile red efflux at 500 uM pretreated for 15 mins followed by nile red addition measured after 3 hrs for 200 secs in presence of glucose by fluorimetric method
[7] = test system: Escherichia coli BW25113; experiment: Inhibition of […] in drug resistant Escherichia coli BW25113 assessed as increase in outer membrane permeability by measuring increase nitrocefin hydrolysis at 512 ug/ml measured over 30 mins in presence of CCCP by spectrophotometric method
[8] = test system: Escherichia coli BW25113; experiment: Inhibition of AcrB in drug resistant Escherichia coli BW25113 assessed as reduction in nile red efflux at 200 uM pretreated for 15 mins followed by nile red addition measured after 3 hrs for 200 secs in presence of glucose by fluorimetric method
[9] = test system: Escherichia coli BW25113; experiment: Inhibition of AcrB in wild-type drug resistant Escherichia coli BW25113 assessed as potentiation of erythromycin-induced antibacterial activity by measuring erythromycin MIC at 200 ug/ml after 18 hrs by checkerboard method (reference value: 128 ug/ml)
[10] = test system: Escherichia coli; experiment: Effect on rifampicin-induced antibacterial activity against wild-type drug resistant Escherichia coli BW25113 assessed as rifampicin MIC at 200 ug/ml after 18 hrs by checkerboard method (reference value: 16 ug/ml); type: functional; conditions: BW25113, 18 h
[11] = test system: Escherichia coli BW25113; experiment: Inhibition of AcrB in wild-type drug resistant Escherichia coli BW25113 assessed as potentiation of chloramphenicol-induced antibacterial activity by measuring chloramphenicol MIC at 200 ug/ml after 18 hrs by checkerboard method (reference value: 8 ug/ml)
[12] = test system: Escherichia coli BW25113; experiment: Inhibition of AcrB in wild-type drug resistant Escherichia coli BW25113 assessed as potentiation of tetraphenyl phosphonium chloride-induced antibacterial activity by measuring tetraphenyl phosphonium chloride MIC at 200 ug/ml after 18 hrs by checkerboard method (reference value: 1024 ug/ml)

| Compound | inhibition [1] | growth inhibition (GI) [2] | inhibition [3] | inhibition [4] | Activity [5] | inhibition [6] | inhibition [7] | inhibition [8] | MIC [9] [µg/mL] | MIC [10] [µg/mL] | MIC [11] [µg/mL] | MIC [12] [µg/mL] |
| --- | --- | --- | --- | --- | --- | --- | --- | --- | --- | --- | --- | --- |
| NC(=O)c1cc(OCc2ccc(F)cc2)c2ccccc2c1 | inactive | Non-Toxic | inactive | inactive | inactive |  |  |  |  |  |  |  |
| CC(C)COc1cc(C(N)=O)cc2ccccc12 |  | Non-Toxic |  | Active |  | Active | Active |  |  |  |  |  |
| Cc1ccccc1COc1cc(C(N)=O)cc2ccccc12 | inactive | Non-Toxic | inactive | inactive | inactive |  |  |  |  |  |  |  |
| NC(=O)c1cc(OCc2ccccc2Cl)c2ccccc2c1 | inactive | Non-Toxic | inactive | inactive | inactive |  |  |  |  |  |  |  |
| CCOC(=O)CCCOc1cc(C(N)=O)cc2ccccc12 | inactive | Non-Toxic | inactive | inactive | inactive |  |  |  |  |  |  |  |
| CCC(C)Oc1cc(C(N)=O)cc2ccccc12 (stereo not drawn) | inactive | Non-Toxic | inactive | inactive | inactive |  |  |  |  |  |  |  |
| NC(=O)c1cc(OCc2ccccc2F)c2ccccc2c1 | inactive | Non-Toxic | inactive | inactive | inactive |  |  | Active |  |  |  |  |
| CCOC(=O)C(C)Oc1cc(C(N)=O)cc2ccccc12 (stereo not drawn) | inactive | Non-Toxic | inactive | inactive | inactive |  |  |  |  |  |  |  |
| NC(=O)c1cc(OCc2ccccc2)c2ccccc2c1 |  | Non-Toxic | Active |  |  | Active | Active |  |  |  |  |  |
| CCCCC(CC)COc1cc(C(N)=O)cc2ccccc12 (stereo not drawn) | inactive | Non-Toxic | inactive | inactive | inactive |  |  |  |  |  |  |  |
| NC(=O)c1cc(OCC2CCCC2)c2ccccc2c1 | inactive | Non-Toxic | inactive | inactive | inactive |  |  |  |  |  |  |  |
| CCOC(=O)COc1cc(C(N)=O)cc2ccccc12 | inactive | Non-Toxic | inactive | inactive | inactive |  |  |  |  |  |  |  |
| N=C(N)NCCC[C@H](NC(=O)[C@@H](N)Cc1ccccc1)C(=O)Nc1ccc2ccccc2c1 [PABETAN] (H-Phe-Arg-βNA) |  |  |  |  |  |  |  |  | 16 | 1 | 2 | 128 |
| NC(=O)c1cc(OCc2cccc(F)c2)c2ccccc2c1 | inactive | Non-Toxic | inactive | inactive | inactive |  |  |  |  |  |  |  |
